Laboratory results: patent publication US20240262844A1, “PYRIDINIUM SALTS AND METHODS OF USE” (UNIVERSITY OF WYOMING, priority 2023, published 2024)
Entries after “also recorded” stand apart in the source; their conditions may differ. Counter-ions that a name gives are not always drawn.

Tested on: HEK293T lysates
Test: Chemoproteomic profiling of HEK293T lysates (protein-level enrichment)
Format: biochemical, Human
Procedure: In lysate tryptophan probe treatment for protein-level characterization: HEK293T cell pellets were suspended in native lysis buffer (50 mM HEPES pH 7.5, 150 mM sodium chloride (NaCl), 1.5 mM MgCl2, 1 mM DTT, 0.8% NP-40, 5% glycerol, and 1x protease inhibitors (Thermo)) at 2x the pellet volume. The samples were sonicated on ice for 30 seconds at 20% amplitude with a 2 second pulse ON and 3 second pulse OFF. Cell debris was removed by centrifugation at 20,000×g for 20 minutes at 4° C. Protein concentration was determined by bicinchoninic acid (BCA) (Pierce) and diluted down to 5 mg/mL with ChemProt buffer (50 mM HEPES pH 7.5, 150 mM NaCl, 1.5 mM MgCl2, 1 mM DTT, 0.4% NP-40, and 1x protease inhibitors (Thermo). 5 mg cell lysates were treated with 100x stocks of the tryptophan probes (pyridinium salts 1a, 1b, and 2b) to generate final concentrations (0, 1, 10, and 100 μM) in 1% DMSO. Lysates were incubated for 1 hour at 4° C. followed by photo-activation at respective wavelengths for 20 minutes at 4° C. Excess probe was removed using Sephadex G-25 PD-10 desalting columns (GE Healthcare) pre-equilibrated with 50 mM HEPES pH 7.5, 150 mM NaCl, 1.5 mM MgCl2, and 0.4% NP-40. The samples were then treated with 100 μL Neutravidin resin as a 50% slurry (Peirce). The samples were incubated overnight on a rotating apparatus at R.T. The following day, the beads were transferred to a MobiCol column (Boca Scientific), washed 3× with phosphate buffered saline (PBS) containing 0.2% SDS, washed 3x with PBS, and the enriched proteins were eluted with 2×NuPAGE lithium dodecyl sulfate (LDS) containing 10 mM DTT (Pierce) and heated for 30 minutes at 55° C. The eluent was collected and subsequently treated with 20 mM iodoacetamide (Pierce) for 30 minutes at R.T. protected from light. Samples were passed through detergent removal columns (Pierce) that were pre-equilibrated with 50 mM HEPES pH 8.0. The samples were treated with 2.5 μg Trypsin/LysC (Promega) at 37° C. for 16 hours. The following day, the sample was collected and prepped for isobaric labeling with TMT reagents (Thermo) as specified by the manufacturer.
Quantitative proteomics by two-dimensional nano liquid chromatography-tandem mass spectrometry (nLC-MS/MS): For protein-level characterization, the TMT-labeled sample were reconstituted in 0.1% formic acid (FA)/2% acetonitrile for offline high-pH reversed phase separation (RP10) using a Dionex UltiMate 3000 high-performance liquid chromatography (HPLC) system with fraction collection using Chromeleon v.6.8 (Thermo) software. Separation was achieved on a Waters Xbridge C18 3.5 μm 2.1×150 mm HPLC column (Waters) using a flow rate of 250 μL min-1 and the following ternary gradient and conditions: mobile phase A=water (HPLC grade), mobile phase B=acetonitrile (HPLC grade), and mobile phase C=200 mM ammonium acetate, pH 10. Mobile phase C is held at 10% throughout gradient. Starting conditions are 89% mobile phase A and 1% mobile phase B, ramping mobile phase B to 80% over 65 min. Fractions were collected in 96-well plates at 100 see per well. Fractions were reduced down to 12 fractions, dried, and reconstituted in 0.1% FA/2% acetonitrile for nLC-MS/MS. All data were acquired using a Orbitrap Fusion Lumos coupled to an Easy-nLC 1200 nanoflow liquid chromatograph operating at 300 nL min^−1. Peptides were cleaned up using a 1 cm online custom trap then eluted on a custom 20 cm laser pulled 75 μm column with C18 resin. Peptides were quantified using the synchronous precursor selection (SPS-MS3) or HCD method for TMT quantitation with 120k MS1 resolving power, 50 ms max injection time and 100% AGC. MS2 spectra were selected using the top ten most abundant features with a charge state between 2-6 using CID (collision induced dissociation) in the ion trap. The AGC was set to 100% with an isolation width of 0.7. MS3 was performed on the top 10 most abundant MS2 features between 400-1600 amu with a collision energy of 55%, AGC of 250%, and 50k resolution. […]

COc1ccc2cc(-c3cc(C)[n+](N(C)C(=O)OCCCCC[C@H]4SC[C@H]5NC(=O)N[C@H]54)c(C)c3)ccc2c1 (stereo in doubt) [Pyridinium salt 2b, 4-(6-methoxynaphthalen-2-yl)-2,6-dimethyl-1-(methyl(((5-((3aR,4R,6aS)-2-oxohexahydro-1H-thieno[3,4-d]imidazol-4-yl)pentyl)oxy)carbonyl)amino)pyridin-1-ium tetrafluoroborate]
proteome labeling profile, streptavidin-HRP Western blot of elution profiles (0-100 μM probe, with and without irradiation, before digestion): concentration and optically dependent proteome labeling profiles; also recorded: dose-response profiles | number of proteins identified (from ≥2 unique peptides) with ≥2-fold enrichment versus DMSO (about 100 μM probe, 60 min incubation, 20 min irradiation (302 nm 1a, 320 nm 1b, 440 nm 2b)): 523 proteins | percentage of unique enriched proteins (comparison of proteome coverage of probes 1a, 1b, 2b at 100 μM): about 69% | reactivity in the absence of photoirradiation (enrichment profiles with and without photoirradiation): thermal inertness
